In data set [1] the test system is Scopolamine-induced memory deficiency. The experiment in a line: Test of scopolamine-induced memory deficiency (passive avoidance). Format: in vivo. The settings on record: rats. The text has this: Test of Scopolamine-Induced Memory Deficiency:
Scopolamine has amnesiant properties in man and animals. Thus, its administration to a healthy person causes certain symptoms similar to what is observed in Alzheimer's disease. Scopolamine-induced memory deficiency is thus used as an experimental pharmacological model of this pathology. Scopolamine reduces the capacity for acquisition, memorization and recall in a test of passive avoidance in rats. […] The administration of scopolamine suppresses this reticence, and the test compounds counter the effect of scopolamine. The experimental protocol used is described in Psychopharmacol. 1992, 106, 26-30.

For data set [2], the target named is T1, human alpha-2A adrenergic receptors (Homo sapiens, UniProt P08913).
T1 construct: host or cells: membrane preparations
T1 sequence (P08913 1-465): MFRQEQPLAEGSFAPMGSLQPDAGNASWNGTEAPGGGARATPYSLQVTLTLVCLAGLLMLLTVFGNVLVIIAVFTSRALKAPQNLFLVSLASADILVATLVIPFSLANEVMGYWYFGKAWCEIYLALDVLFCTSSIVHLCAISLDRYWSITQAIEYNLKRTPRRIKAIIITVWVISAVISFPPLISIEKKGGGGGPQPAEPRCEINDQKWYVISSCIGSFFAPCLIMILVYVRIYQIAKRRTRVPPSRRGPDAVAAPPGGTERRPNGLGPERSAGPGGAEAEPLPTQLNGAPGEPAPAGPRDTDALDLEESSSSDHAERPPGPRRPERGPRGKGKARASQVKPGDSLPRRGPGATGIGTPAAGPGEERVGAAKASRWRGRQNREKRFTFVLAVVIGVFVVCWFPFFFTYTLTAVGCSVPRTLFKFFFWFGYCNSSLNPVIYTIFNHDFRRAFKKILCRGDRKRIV
The experiment in a line: Measurement of the activation of the adrenergic alpha-2 receptors (GTPγS response on membrane preparations). Format: biochemical. The settings on record: GTPγS response versus maximum stimulation by (−)-adrenalin, negative = inverse agonist, read-out: Intrinsic activity % stimulated. As to the method:
Measurement of the Activation of the Adrenergic Alpha-2 Receptors:
The responses as GTPγS are performed on membrane preparations in 20 mM HEPES (pH=7.4) with 30 μM of GDP, 100 mM of NaCl, 3 mM of MgCl2 and 0.2 mM of ascorbic acid. The maximum stimulation of the GTPγS is determined in the presence of […] of (−)-adrenalin and calculated versus the basal GTPγS response. The results are expressed versus either adrenalin or RX 81105-9. Under these conditions, the compounds of the invention are distinguished from most of the compounds of the prior art of the 4,5-dihydro-1H-imidazole and/or 1H-imidazole type in that they behave rather as inverse agonists on human alpha-2A adrenergic receptors (cf. above table).

Data set [3] deals with T2, human alpha-2B receptor (Homo sapiens, UniProt P18089).
T2 construct: expressed in transfected cells; host or cells: C6 cells (permanent expression), membranes
T2 sequence (P18089 1-450): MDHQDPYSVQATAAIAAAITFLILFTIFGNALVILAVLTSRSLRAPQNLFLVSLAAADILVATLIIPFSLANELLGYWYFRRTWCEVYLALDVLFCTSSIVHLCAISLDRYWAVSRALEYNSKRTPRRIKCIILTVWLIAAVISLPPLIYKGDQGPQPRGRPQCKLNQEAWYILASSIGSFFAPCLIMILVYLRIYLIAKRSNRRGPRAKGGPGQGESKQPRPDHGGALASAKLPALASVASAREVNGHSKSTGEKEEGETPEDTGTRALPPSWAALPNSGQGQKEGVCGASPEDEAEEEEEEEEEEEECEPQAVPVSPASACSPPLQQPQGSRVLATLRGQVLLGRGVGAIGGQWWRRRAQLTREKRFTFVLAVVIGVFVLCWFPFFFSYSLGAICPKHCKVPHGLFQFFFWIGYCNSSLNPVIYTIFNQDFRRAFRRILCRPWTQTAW
The experiment in a line: Binding to the adrenergic alpha-2B receptor, [3H]RX 821002, C6 cell membranes. The settings on record: membranes of C6 cells expressing human alpha-2B; 2 nM [3H]RX 821002; 30 minutes at 25° C.; read-out: Affinity (pKi) Alpha-2B (converted). As to the method: (§1) Membranes of C6 cells permanently expressing either the human alpha-2A or alpha-2B receptor are prepared in Tris-HCl (pH=7.6). The binding tests are performed with 2 nM [^3H]RX 821002. The incubation medium is composed of 0.4 ml of cell membranes (10 μg of proteins), 0.05 ml of radioligand and 0.05 ml of test product or of phentolamine (10 μM) to determine the nonspecific binding. The reaction is quenched after incubation for 30 minutes at 25° C. by adding 3 ml of cold 50 mM Tris-HCl (pH=7.6), followed by filtration through Whatman GF/B filters using a Brandel. The Ki values are calculated according to the equation Ki=IC50/(1+C/Kd) in which C is the concentration and Kd the dissociation constant, pKi=−logKi. Under these conditions, it is seen that the compounds of the invention have high affinity for the receptors of the human adrenergic alpha-2A subtype, whereas they have little or no affinity for the receptors of the human adrenergic alpha-2B subtype (cf. above table). This unexpected receptor selectivity of the compounds of the invention, compared with the compounds of the prior art, may have a favorable impact on their tolerance.

Data set [4] deals with T3, human alpha-2A receptor (Homo sapiens, UniProt P08913).
T3 construct: expressed in transfected cells; host or cells: C6 cells (permanent expression), membranes
T3 sequence (P08913 1-465): T1 sequence (P08913 1-465)
Kind of data set: Binding to the adrenergic alpha-2A receptor, [3H]RX 821002, C6 cell membranes. The settings on record: membranes of C6 cells expressing human alpha-2A; 2 nM [3H]RX 821002; 30 minutes at 25° C.; read-out: Affinity (pKi) Alpha-2A (converted). The method, then:
as §1

These results are taken from US20050107455A1, “Novel tricycloimidazoline derivatives method for production and use thereof as medicaments” (priority 2002, published 2005).

Broadly, the melting point is the temperature, or range, at which the solid turns liquid.

Where a name gives a salt, the structure may show the parent alone.

Take `CO[C@H]1c2ccccc2C2C[C@]21C1=NCCN1` (mixture of isomers) [XV-1, 2-(6-Methoxy-1a,6-dihydro-1H-cyclopropa[a]-inden-6a-yl)-4,5-dihydro-1H-imidazole]: the “Scopolamine-induced memory deficiency amplitude of the effect %” value in data set [1] (dose 2.5 mg/kg i.p.) is “+168 (2.5) %”. For the same compound, the Emax in data set [2] is -2%. The figures for the Ki in data set [3] and in data set [4] were 316 nM and 12.6 nM, respectively.

Compound `COC1c2ccccc2C2CC21C1=NCCN1` (single isomer, unassigned; (+)) (as salt: fumarate) [(+) -XV-1, (+)-2-(6-Methoxy-1a,6-dihydro-1H-cyclopropa[a]inden-6a-yl)-4,5-dihydro-1H-imidazole] displayed a melting point of 170 to 172 °C.

On to `C[C@@H]1[C@H]2c3ccccc3C[C@@]12C1=NCCN1` (racemic) (as salt: fumarate) [XVII-2, 2-(1-exo-Methyl-1a,6-dihydro-1H-cyclopropa-[a]inden-6a-yl)-4,5-dihydro-1H-imidazole], for which the melting point was in the range of 133 to 135 °C.

Consider `COc1cccc2c1C1C[C@@]1(C1=NCCN1)[C@H]2OC` (stereo in doubt) (as salt: fumarate) [XV-1a, 2-(2,6-Dimethoxy-1a,6-dihydro-1H-cyclopropa[a]inden-6a-yl)-4,5-dihydro-1H-imidazole], for which the melting point was 177 to 179 °C.

`CO[C@H]1c2ccccc2C2C[C@]21C1=NCCN1` (mixture of isomers) (as salt: fumarate) [XV-1, 2-(6-Methoxy-1a,6-dihydro-1H-cyclopropa[a]-inden-6a-yl)-4,5-dihydro-1H-imidazole] displayed a melting point of 173 to 175 °C.

Take `CNCC(O)c1ccc(O)c(O)c1` (single isomer, unassigned; (-)) [(−)-adrenalin, reference compound]: the Emax in data set [2] was determined as 100%.

The compound `c1ccc2c(c1)CC1(C3=NCCN3)CC21` (single isomer, unassigned; (-)) (as salt: hydrochloride) [(−)-XVII-1, (−)-2-(1a,6-Dihydro-1H-cyclopropa[a]inden-6a-yl)-4,5-dihydro-1H-imidazole] yielded a melting point of 245 to 247 °C.

As to `COC1c2ccccc2C2CC21C1=NCCN1` (single isomer, unassigned; (+)) [(+) -XV-1, (+)-2-(6-Methoxy-1a,6-dihydro-1H-cyclopropa[a]inden-6a-yl)-4,5-dihydro-1H-imidazole], the Emax in data set [2] was -63%. The Ki in data set [3] is greater than 10000 nM; in data set [4] it was 3.98 nM.

Regarding `C[C@@H]1[C@H]2c3ccccc3C[C@@]12C1=NCCN1` (racemic) [XVII-2, 2-(1-exo-Methyl-1a,6-dihydro-1H-cyclopropa-[a]inden-6a-yl)-4,5-dihydro-1H-imidazole], the “Scopolamine-induced memory deficiency amplitude of the effect %” value in data set [1] (dose 0.63 mg/kg i.p.) is on record as “+181 (0.63) %”. In addition, the Emax in data set [2] is -64%. Moreover, the Ki in data set [3] was 20 nM; in data set [4] it was 3.16 nM.

Take `COc1cc2c(cc1OC)C(=O)C(CC1CCN(Cc3ccccc3)CC1)C2` (stereo not drawn) [donepezil, reference compound]: the “Scopolamine-induced memory deficiency amplitude of the effect %” value in data set [1] (dose 0.16 mg/kg i.p.) is “+67 (0.16) %”.
